In data set [1] the test system is Pkd1 knockout mouse model of ADPKD. The note with it: orthologous Pkd1 knockout mouse model of ADPKD; cited from earlier work.
The subject of data set [2] is Wistar Han rats. Conditions: 14 days of treatment in Wistar Han rats; cited from earlier work.
The subject of data set [3] is ZSF1 rat model of diabetic nephropathy. The note with it: cited from earlier work.
Data set [4] concerns the target T1, AMPKα1β2γ1 (Homo sapiens, UniProt O43741+Q13131).
T1 construct: purchased Carna Biosciences (printed only as 'Biosciences') 02-147
The experiment in a line: AMPKα1β2γ1 biochemical assay (LabChip EZ Reader mobility shift). The note with it: second EC50 column of Table 1 (head repeats α1β1γ1; text says α1β2γ1 isoform); read-out: Human AMPK AMPKα1β1γ1 EC50. Here is the method:
(§1) Compounds disclosed herein were evaluated for their ability to activate AMPKα1β1γ1 by measuring phosphorylation of a commercially available fluorescent AMPK substrate using the LabChip® EZ Reader microfluidic system that is based on a mobility shift principle in which unphosphorylated fluorescent substrates may be separated and distinguished from phosphorylated fluorescent substrates due to the difference in negative charge. Briefly, compounds were serial diluted 3-fold in 100% DMSO for an 11-point dose-response curve. A 20 nL aliquot of diluted compound was transferred into a 384-well plate using a liquid handler (Labcyte Inc., Echo 550). A pre-prepared solution (10 mM MgCl2, 0.01% Brij-35, 2 mM DTT, 0.05% BSA, 1 mM EGTA, and 50 mM HEPES pH 7.5) was combined with 0.83 nM AMPKα1β1γ1 (Carna Biosciences, 02-113). The enzyme solution (15 μL) was aliquoted into each well and the plate was incubated at 24° C. for 30 min. A second stock solution (10 mM MgCl2, 0.01% Brij-35, 2 mM DTT, 0.05% BSA, 1 mM EGTA, 800 μM ATP, and 50 mM HEPES pH 7.5) was combined with 6 μM fluorescent peptide substrate for AMPKal (Perkin Elmer, 760351). The kinase reaction was initiated by adding 5 μL of the second solution containing substrate and ATP to each well. The plate was incubated at 24° C. for 90 minutes and 75 μL of 0.5 M EDTA was added to terminate the reaction. The plates were analyzed using a LabChip® EZ Reader (Perkin Elmer, 122919) and the effective concentration to achieve 50% of the maximal activity (EC50) was calculated after normalizing to the DMSO vehicle control.
The same procedure above was also used to measure activation of the AMPKα1β2γ1 isoform, replacing AMPKα1β1γ1 with AMPKα1β2γ1 Biosciences 02-147).

In data set [5] the target is T2, AMPKα1β1γ1 (Homo sapiens, UniProt Q13131+Q9Y478).
T2 construct: purchased Carna Biosciences 02-113
The experiment in a line: AMPKα1β1γ1 biochemical assay (LabChip EZ Reader mobility shift). Conditions: EC50 of Table 1; activation, normalized to DMSO vehicle control; read-out: Human AMPK AMPKα1β1γ1 EC50. The procedure:
as §1

Data set [6] concerns high fat diet mice. The note with it: cited from earlier work.
In data set [7] the test system is miniature pig model of ADPKD. Conditions: cited from earlier work.
Data set [8] relates to orthologous mouse model of ADPKD. The note with it: cited from earlier work.
Where [9] appears, read: ZSF1 progressive rat model of diabetic nephropathy.

T1 sequence (Q13131 whole entry): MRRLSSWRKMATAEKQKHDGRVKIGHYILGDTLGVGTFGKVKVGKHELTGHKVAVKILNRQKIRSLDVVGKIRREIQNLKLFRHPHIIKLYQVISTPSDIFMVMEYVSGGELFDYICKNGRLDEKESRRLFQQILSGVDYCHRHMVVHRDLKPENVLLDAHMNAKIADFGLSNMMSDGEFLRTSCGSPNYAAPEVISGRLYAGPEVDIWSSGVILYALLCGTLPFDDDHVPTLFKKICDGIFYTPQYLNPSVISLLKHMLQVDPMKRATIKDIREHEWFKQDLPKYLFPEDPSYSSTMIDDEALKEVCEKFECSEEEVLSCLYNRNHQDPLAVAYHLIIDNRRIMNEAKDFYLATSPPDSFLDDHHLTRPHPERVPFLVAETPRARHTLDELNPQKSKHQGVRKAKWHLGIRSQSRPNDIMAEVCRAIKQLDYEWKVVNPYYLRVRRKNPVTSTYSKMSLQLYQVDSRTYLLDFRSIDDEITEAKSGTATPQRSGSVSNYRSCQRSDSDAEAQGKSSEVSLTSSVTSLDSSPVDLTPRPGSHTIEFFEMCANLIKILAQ
T1 sequence (O43741 whole entry): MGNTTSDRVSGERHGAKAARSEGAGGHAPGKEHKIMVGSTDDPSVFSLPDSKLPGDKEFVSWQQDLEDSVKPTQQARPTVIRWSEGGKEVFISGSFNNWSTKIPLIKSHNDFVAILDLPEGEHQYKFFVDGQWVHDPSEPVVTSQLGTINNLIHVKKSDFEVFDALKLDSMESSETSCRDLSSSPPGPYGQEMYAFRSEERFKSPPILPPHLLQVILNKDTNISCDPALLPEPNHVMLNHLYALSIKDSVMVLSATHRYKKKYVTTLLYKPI
T1 sequence (P54619 whole entry partner): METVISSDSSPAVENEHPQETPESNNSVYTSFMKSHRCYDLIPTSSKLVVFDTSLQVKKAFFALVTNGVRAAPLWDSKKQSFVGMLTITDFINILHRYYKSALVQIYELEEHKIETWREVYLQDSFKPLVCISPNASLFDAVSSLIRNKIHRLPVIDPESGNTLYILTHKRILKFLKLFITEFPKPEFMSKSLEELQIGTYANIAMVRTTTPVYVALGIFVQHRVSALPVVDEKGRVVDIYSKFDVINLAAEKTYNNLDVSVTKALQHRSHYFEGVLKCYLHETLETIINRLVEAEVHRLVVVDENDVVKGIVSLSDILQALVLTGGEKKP
T2 sequence (Q13131 whole entry): as the sequence (Q13131 whole entry) above
T2 sequence (Q9Y478 whole entry): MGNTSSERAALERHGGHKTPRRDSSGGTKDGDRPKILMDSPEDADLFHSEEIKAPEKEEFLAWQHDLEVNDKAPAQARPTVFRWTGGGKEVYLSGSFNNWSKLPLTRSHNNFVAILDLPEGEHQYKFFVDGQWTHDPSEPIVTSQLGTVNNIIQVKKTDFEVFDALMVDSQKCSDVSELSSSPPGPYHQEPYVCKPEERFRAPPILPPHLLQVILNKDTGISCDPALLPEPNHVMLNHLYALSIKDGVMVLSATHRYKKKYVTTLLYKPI
T2 sequence (P54619 whole entry partner): as the sequence (P54619 whole entry partner) above

For `O=C(Oc1ccccc1C(=O)O)c1ccccc1O` [salsalate], the cystic disease severity entry in data set [1] was “attenuate cystic disease severity”.

Take MK-8722: in data set [2], the cardiac glycogen levels result is “increased cardiac glycogen levels” and the cardiac hypertrophy entry is reported as “significant cardiac hypertrophy”. In data set [3] (setting [9]), the “proteinuria, glomerular filtration rate, and kidney fibrosis” value is given as “significant improvements”; the renal protection result was “renal protective”.

As usually defined, the EC50 is the concentration at which the effect is half-maximal. For the compound `COc1nc(N2CC3(COC3)C2)ccc1-c1cc2c(C(=O)O)c[nH]c2cc1Cl` [Example 1, 6-chloro-5-(2-methoxy-6-(2-oxa-6-azaspiro[3.3]heptan-6-yl)pyridin-3-yl)-1H-indole-3-carboxylic Acid], the results for the EC50 in data set [4] and in data set [5] were > 10 µM and ≤ 0.05 µM, respectively.

For the compound `COc1nc(N2C[C@@H]3[C@@H](O)[C@@H]3C2)ccc1-c1cc2c(C(=O)O)c[nH]c2cc1Cl` [Example 24, 6-chloro-5-(6-((trans)-6-hydroxy-3-azabicyclo[3.1.0]hexan-3-yl)-2-methoxypyridin-3-yl)-1H-indole-3-carboxylic acid], the EC50 in data set [4] is 0.25 to 10 µM; in data set [5] it was ≤ 0.05 µM.

Consider `COC[C@@H]1[C@H]2CN(c3ccc(-c4cc5c(C(=O)O)c[nH]c5cc4Cl)c(OC)n3)C[C@@H]12` [Example 9, 6-chloro-5-(2-methoxy-6-((trans)-6-(methoxymethyl)-3-azabicyclo[3.1.0]hexan-3-yl)pyridin-3-yl)-1H-indole-3-carboxylic acid], for which the EC50 was > 10 µM in data set [4] and ≤ 0.05 µM in data set [5].

For the compound `COc1nc(N2C[C@H]3CCO[C@H]3C2)ccc1-c1cc2c(C(=O)O)c[nH]c2cc1Cl` (racemic) [Example 28, racemic-6-chloro-5-(6-((cis)-hexahydro-5H-furo[2,3-c]pyrrol-5-yl)-2-methoxypyridin-3-yl)-1H-indole-3-carboxylic acid], the EC50 in data set [4] was > 10 µM; in data set [5], ≤ 0.05 µM.

For `COc1nc(N2C[C@@H]3[C@H](C2)[C@H]3OC)ccc1-c1cc2c(C(=O)O)c[nH]c2cc1Cl` [Example 23, 6-chloro-5-(2-methoxy-6-((trans)-6-methoxy-3-azabicyclo[3.1.0]hexan-3-yl)pyridin-3-yl)-1H-indole-3-carboxylic acid], the results for the EC50 in data set [4] and in data set [5] were > 10 µM and 0.05 to 0.1 µM, respectively.

`COc1nc(N2CC3(CNC(=O)C3)C2)ccc1-c1cc2c(C(=O)O)c[nH]c2cc1Cl` [Example 19, 6-chloro-5-(2-methoxy-6-(7-oxo-2,6-diazaspiro[3.4]octan-2-yl)pyridin-3-yl)-1H-indole-3-carboxylic acid]: the values for the EC50 in data set [4] and in data set [5] were > 10 µM and ≤ 0.05 µM, respectively.

Regarding `COc1nc(N2CC3(CCC3O)C2)ccc1-c1cc2c(C(=O)O)c[nH]c2cc1Cl` (racemic) [Example 25, racemic-6-chloro-5-(6-(5-hydroxy-2-azaspiro[3.3]heptan-2-yl)-2-methoxypyridin-3-yl)-1H-indole-3-carboxylic acid], the EC50 in data set [4] was > 10 µM; in data set [5], 0.05 to 0.1 µM.

As to `COc1nc(N2CC3(CC(=O)N(C)C3)C2)ccc1-c1cc2c(C(=O)O)c[nH]c2cc1Cl` [Example 22, 6-chloro-5-(2-methoxy-6-(6-methyl-7-oxo-2,6-diazaspiro[3.4]octan-2-yl)pyridin-3-yl)-1H-indole-3-carboxylic acid], the values for the EC50 in data set [4] and in data set [5] were > 10 µM and ≤ 0.05 µM, respectively.

Take `O=C(O)c1c[nH]c2cc(Cl)c(-c3ccc(C4(O)CCC4)cc3)cc12` [PF-06409577]: the proteinuria entry in data set [3] (ZSF1 rat model of diabetic nephropathy) is listed as “reduced proteinuria”.

On to `COc1nc(N2C[C@@H]3[C@@H](CO)[C@@H]3C2)ccc1-c1cc2c(C(=O)O)c[nH]c2cc1Cl` [Example 3, 6-chloro-5-(6-((trans)-6-(hydroxymethyl)-3-azabicyclo [3.1.0]hexan-3-yl)-2-methoxypyridin-3-yl)-1H-indole-3-carboxylic acid], for which the EC50 in data set [4] is 0.25 to 10 µM; in data set [5], ≤ 0.05 µM.

Regarding `CN(C)C(=N)N=C(N)N` [Metformin], the “high fat diet-induced metabolic derangement and renal injury” value in data set [6] was “reduce high fat diet-induced metabolic derangement and renal injury”. Moreover, the cystic kidney disease entry in data set [7] and in data set [8] was “attenuate cystic kidney disease” each time.

As to `COc1nc(N2CC3CC3(O)C2)ccc1-c1cc2c(C(=O)O)c[nH]c2cc1Cl` (racemic) [Example 26, racemic-6-chloro-5-(6-(1-hydroxy-3-azabicyclo[3.1.0]hexan-3-yl)-2-methoxypyridin-3-yl)-1H-indole-3-carboxylic acid], the EC50 is > 10 µM in data set [4] and ≤ 0.05 µM in data set [5].

For the compound `COc1nc(N2CC3(CC3)C2)ccc1-c1cc2c(C(=O)O)c[nH]c2cc1Cl` [Example 12, 5-[6-(5-azaspiro[2.3]hexan-5-yl)-2-methoxy-3-pyridyl]-6-chloro-1H-indole-3-carboxylic acid], the EC50 in data set [4] was > 10 µM; in data set [5], ≤ 0.05 µM.

As for `COc1nc(N2CCC3(COC3)C2)ccc1-c1cc2c(C(=O)O)c[nH]c2cc1Cl` [Example 5, 6-chloro-5-(2-methoxy-6-(2-oxa-6-azaspiro[3.4]octan-6-yl)pyridin-3-yl)-1H-indole-3-carboxylic acid], the EC50 in data set [4] was > 10 µM; in data set [5], ≤ 0.05 µM.

Take `COc1nc(N2CC3(CCOC3)C2)ccc1-c1cc2c(C(=O)O)c[nH]c2cc1Cl` [Example 21, 6-chloro-5-(2-methoxy-6-(6-oxa-2-azaspiro[3.4]octan-2-yl)pyridin-3-yl)-1H-indole-3-carboxylic acid]: the EC50 in data set [4] is > 10 µM; in data set [5], ≤ 0.05 µM.

Regarding `COc1nc(N2CC3CC3(C#N)C2)ccc1-c1cc2c(C(=O)O)c[nH]c2cc1Cl` (racemic) [Example 15, racemic-6-chloro-5-(6-(1-cyano-3-azabicyclo[3.1.0]hexan-3-yl)-2-methoxypyridin-3-yl)-1H-indole-3-carboxylic acid], the EC50 in data set [4] was > 10 µM; in data set [5] it was 0.05 to 0.1 µM.

For the compound `COc1nc(N2C[C@H]3CN(C(C)=O)C[C@H]3C2)ccc1-c1cc2c(C(=O)O)c[nH]c2cc1Cl` [Example 38, 5-(6-((3aR,6aS)-5-acetylhexahydropyrrolo [3,4-c]pyrrol-2(1H)-yl)-2-methoxypyridin-3-yl)-6-chloro-1H-indole-3-carboxylic acid], the EC50 in data set [4] was 0.25 to 10 µM; in data set [5], ≤ 0.05 µM.

(Values after patent publication US20220339144A1, “PYRIDINYL INDOLE COMPOUNDS AND METHODS OF USE THEREOF” (Chinook Therapeutics Canada, Inc., priority 2021, published 2022).)
